This note sets out measurements from paper PMC5702336, “Critical Role of Hepatic Cyp450s in the Testis-Specific Toxicity of (5R)-5-Hydroxytriptolide in C57BL/6 Mice” (Frontiers in Pharmacology, 2017).

Molecules are shown by their SMILES. Entries after “also recorded” stand apart in the source; their conditions may differ.

One series has as its system rat liver microsomes. Briefly: Chemical inhibition study of LLDT-8 metabolism with selective CYP inhibitors. The class given is in vitro ADME. Conditions: LLDT-8 2 μM, 0.5 and 1 h, residual LLDT-8 by LC-MS/MS. On the procedure:
The chemical inhibition assay was performed as previously reported (Li et al., [2008]). A 400 μl typical incubation mixture contained 0.2 mg rat liver microsomes (20 mg/ml, Cat. No: LM-DS-02M, Lot. No: BDVH, Research Institute for liver Diseases, Shanghai, China), 2 μM LLDT-8, 5 mM MgCl2, 1 mM NADPH (Cat. No: 10107824001, Lot. No: 20595625, Sigma, USA) and selective inhibitors of each CYP isoforms in a 100 mM phosphate buffer (pH 7.4). The inhibitors used were as follows: quercetin (2 μM) for CYP1A and CYP2C8, 8-methoxypsoralen (2.5 μM) for CYP2A6, sulfaphenazole (10 μM) for CYP2C9, omeprazole (20 μM) for CYP2C19, quinidine (10 μM) for CYP2D6, clomethiazole (50 μM) for CYP2E1, ketoconazole (1 μM) for CYP3A4 and aminobenzotriazole (50 μM, a broad CYP inhibitor) (Tsyrlov et al., [1994]; Li et al., [2008]). After incubation for 0, 0.5, and 1 h, 100 μl supernatant was collected and quenched by the addition of 100 μl of ice-cold acetonitrile. The mixtures were then centrifuged for 10 min at 20,000 × g. An aliquot of the supernatant was analyzed by LC-MS/MS to monitor the residual LLDT-8 without extraction.
For `Nn1nnc2ccccc21` [aminobenzotriazole], the “effect of CYP inhibitor on the metabolism of LLDT-8” value (“effect of CYP inhibitor” for short) is recorded as “inhibited”. Regarding `Cc1ncsc1CCCl` [clomethiazole], the “effect of CYP inhibitor” value is “inhibited; also recorded: seems to completely inhibit”. Same read-out and setting: to `CC(=O)N1CCN(c2ccc(OCC3COC(Cn4ccnc4)(c4ccc(Cl)cc4Cl)O3)cc2)CC1` (stereo not drawn) [ketoconazole] belongs “inhibited”; to `COc1ccc2[nH]c([S+]([O-])Cc3ncc(C)c(OC)c3C)nc2c1` (stereo not drawn) [omeprazole], “inhibited”. On to `C=C[C@H]1C[N@@]2CC[C@H]1C[C@@H]2[C@@H](O)c1ccnc2ccc(OC)cc12` [quinidine], for which the “effect of CYP inhibitor” value is “inhibited”.

The subject of the next series is mice testes. The series can be described thus: Testicular toxicity comparison between triptolide and LLDT-8 (15 days by gavage, H&E). It is filed as in vivo, mouse. Conditions: 0.25 mg/kg and 0.5 mg/kg by gavage for 15 days. On the procedure: For toxicity experiments, mice (n = 3 for each group) were treated with tritpilide (0.125, 0.25, 0.5mg/kg), LLDT-8 (0.125, 0.25, 0.5mg/kg) consecutively administered by gavage for 15 days. The control group received saline. Mice were sacrificed on the 15th day post-administration and blood, liver, kidney, spleen, testis and epididymis were collected. The main lobe of liver, kidney, spleen and epididymis were fixed in 10% neutral buffered formalin for histological examination, the left testicle was fixed in Davidson’s buffer for 16 hours followed by 10% neutral buffered formalin. Tissue sections were stained with hematoxylin and eosin (H&E). Remaining tissues were stored at -80 °C for RNA and protein extraction.
Supplementary Figure S1 Comparison of testicular toxicity between triptolide(TL) and LLDT-8. Mice (n=3) were weighted before sacrificed on the 15th day post-administration of triptolide, LLDT-8 or saline. The testes were collected and weighted. […] (G-H) Comparison of epididymis weight between triptolide and LLDT-8. Significant difference was determined by one-way Anova, mean ± SD. * p<0.05, *** p<0.001 vs Saline group. # p<0.05, ## p<0.01, ### p<0.001 vs T8 group at the same dosage.
On to `CC(C)[C@]12O[C@H]1[C@@H]1O[C@]13[C@]1(O[C@H]1C[C@H]1C4=C(CC[C@@]13C)C(=O)OC4)[C@@H]2O` [triptolide], for which the “testis morphology (H&E)” value is recorded as “induced severe testicular injury”.
